Test [1] concerns A2780 ovarian cells. Description: A2780 ovarian cell proliferation assay in lipid reduced medium, without palmitate (MTT). It counts as cell-based. The note with it: Homo sapiens, A2780, 96 h; read-out: pIC50 A2780 Ovarian Cell, Without Palmitate (converted).
Test [2] deals with Fatty Acid Synthase Keto-reductase Domain (FASN KR) (Homo sapiens, UniProt P49327). Description: Fatty Acid Synthase keto-reductase domain (FASN KR) inhibition, NADPH oxidation at 340 nm.
Description: After 20 minutes incubation at room temperature the plate was measured again (T2).
The decrease in absorbance was calculated as (Absorbance before incubation T1)−(Absorbance following incubation T2).
A plot of Controlmin versus test compound concentration was fitted to a 4-parameter logistic curve using a non-linear least squares regression method.
The test system of test [3] is LNCaP-Vancouver prostate cells. Description: In vitro LNCaP Vancouver prostate cell proliferation assay in lipid reduced medium. It counts as cell-based. The note with it: read-out: pIC50 LNCaP_Vancouver prostate cell (converted).
For test [4], the target named is T1, hFASN enzyme (full length) (Homo sapiens, UniProt P49327).
T1 construct: 10 μL hFASN enzyme (full length, 300 ng, purified in house); made in house
T1 sequence (P49327 whole entry): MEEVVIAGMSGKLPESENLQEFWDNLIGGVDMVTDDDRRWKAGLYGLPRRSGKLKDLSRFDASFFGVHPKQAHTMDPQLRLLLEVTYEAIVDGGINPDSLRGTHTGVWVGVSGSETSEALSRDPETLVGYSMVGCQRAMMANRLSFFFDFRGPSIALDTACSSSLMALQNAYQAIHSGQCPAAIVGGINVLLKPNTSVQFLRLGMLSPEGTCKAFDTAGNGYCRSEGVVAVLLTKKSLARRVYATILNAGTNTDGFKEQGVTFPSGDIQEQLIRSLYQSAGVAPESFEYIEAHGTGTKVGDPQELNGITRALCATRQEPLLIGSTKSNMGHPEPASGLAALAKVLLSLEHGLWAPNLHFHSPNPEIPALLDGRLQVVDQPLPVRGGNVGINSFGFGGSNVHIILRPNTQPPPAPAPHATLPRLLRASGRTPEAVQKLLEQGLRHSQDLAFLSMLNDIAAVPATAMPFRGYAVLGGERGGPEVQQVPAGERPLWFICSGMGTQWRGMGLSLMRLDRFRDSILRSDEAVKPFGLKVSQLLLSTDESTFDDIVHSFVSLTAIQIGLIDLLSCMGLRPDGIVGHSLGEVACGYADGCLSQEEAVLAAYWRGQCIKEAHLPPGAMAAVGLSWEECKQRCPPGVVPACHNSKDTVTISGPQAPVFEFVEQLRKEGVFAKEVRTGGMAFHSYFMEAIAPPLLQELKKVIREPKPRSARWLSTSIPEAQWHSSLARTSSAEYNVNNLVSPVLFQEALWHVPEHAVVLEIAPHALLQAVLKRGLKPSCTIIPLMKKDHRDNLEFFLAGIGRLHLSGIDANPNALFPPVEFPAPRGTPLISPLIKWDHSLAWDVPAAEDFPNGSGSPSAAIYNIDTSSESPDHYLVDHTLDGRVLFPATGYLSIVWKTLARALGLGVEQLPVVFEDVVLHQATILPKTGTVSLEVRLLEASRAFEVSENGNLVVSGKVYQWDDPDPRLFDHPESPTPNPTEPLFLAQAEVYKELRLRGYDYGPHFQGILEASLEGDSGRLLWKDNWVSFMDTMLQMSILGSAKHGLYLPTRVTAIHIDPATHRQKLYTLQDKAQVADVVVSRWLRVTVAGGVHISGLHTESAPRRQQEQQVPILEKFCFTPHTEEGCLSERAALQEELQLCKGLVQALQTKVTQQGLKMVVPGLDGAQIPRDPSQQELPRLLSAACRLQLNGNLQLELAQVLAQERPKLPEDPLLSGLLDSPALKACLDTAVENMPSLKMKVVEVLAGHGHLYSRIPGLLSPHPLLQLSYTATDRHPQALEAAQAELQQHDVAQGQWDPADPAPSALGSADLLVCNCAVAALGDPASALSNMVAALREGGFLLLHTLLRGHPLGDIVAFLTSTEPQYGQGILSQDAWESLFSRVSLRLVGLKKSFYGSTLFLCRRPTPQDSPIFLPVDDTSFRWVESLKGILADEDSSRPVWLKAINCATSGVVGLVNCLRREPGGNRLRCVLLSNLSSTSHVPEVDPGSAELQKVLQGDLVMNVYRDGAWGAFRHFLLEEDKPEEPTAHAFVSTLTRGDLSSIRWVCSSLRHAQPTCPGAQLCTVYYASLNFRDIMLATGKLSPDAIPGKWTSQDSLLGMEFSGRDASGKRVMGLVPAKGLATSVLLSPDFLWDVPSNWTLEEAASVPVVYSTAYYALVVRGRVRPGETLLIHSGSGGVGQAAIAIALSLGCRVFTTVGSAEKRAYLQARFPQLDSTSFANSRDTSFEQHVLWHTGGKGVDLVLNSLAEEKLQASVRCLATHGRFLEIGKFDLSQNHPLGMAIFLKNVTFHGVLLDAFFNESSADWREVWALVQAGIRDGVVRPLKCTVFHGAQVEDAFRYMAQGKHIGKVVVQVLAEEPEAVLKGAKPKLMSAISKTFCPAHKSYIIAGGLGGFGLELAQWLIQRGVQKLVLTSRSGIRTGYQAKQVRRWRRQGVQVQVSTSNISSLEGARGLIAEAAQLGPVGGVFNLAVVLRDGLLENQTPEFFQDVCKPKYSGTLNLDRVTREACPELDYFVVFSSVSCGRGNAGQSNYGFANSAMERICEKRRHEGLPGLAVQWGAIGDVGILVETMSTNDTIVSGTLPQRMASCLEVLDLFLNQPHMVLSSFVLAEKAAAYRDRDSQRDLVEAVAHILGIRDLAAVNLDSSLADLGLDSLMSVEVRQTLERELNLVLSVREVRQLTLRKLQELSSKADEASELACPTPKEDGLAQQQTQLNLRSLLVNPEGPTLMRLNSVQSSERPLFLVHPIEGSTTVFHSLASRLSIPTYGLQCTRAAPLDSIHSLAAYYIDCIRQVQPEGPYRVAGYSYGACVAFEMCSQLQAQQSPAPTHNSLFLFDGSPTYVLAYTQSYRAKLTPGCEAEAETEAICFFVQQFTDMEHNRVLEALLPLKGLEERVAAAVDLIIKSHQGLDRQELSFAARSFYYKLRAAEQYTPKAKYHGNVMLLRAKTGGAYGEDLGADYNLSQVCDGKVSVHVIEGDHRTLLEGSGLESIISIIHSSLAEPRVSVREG
Description: Fatty Acid Synthase (FASN) inhibition scintillation proximity assay. It counts as biochemical. To be noted: for inhibition at 10 µM: read-out: Human FASN % inhibition @ 10 μM, 10 μM test compound; for IC50: read-out: Human FASN pIC50 (converted). A digest of the protocol: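 Read-out relies on hydrophobic ³H-palmitate product, formed from ³H-acetyl-CoA and malonyl-CoA, binding streptavidin imaging beads, measured at 610±20 nm after at least 24 h. Full-length enzyme (300 ng) in phosphate buffer pH 7.5 with DTT; eight compound concentrations, 0.01–30 μM.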
Background: In a scintillation proximity assay essentially only radioactivity close to the scintillant gives light.

The subject of test [5] is A2780 ovarian cells. Description: A2780 ovarian cell proliferation assay in lipid reduced medium, with palmitate (MTT). Format: cell-based. To be noted: Homo sapiens, A2780, 96 h; read-out: pIC50 A2780 Ovarian Cell, With Palmitate (converted). A digest of the protocol:
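In this palmitate-supplemented format, compound dilutions (30 μM down to 0.01 μM) are added to cells in lipid-reduced serum with 25 μM palmitate, 0.2% fatty-acid-free BSA and 0.25% ethanol. After four days (96 h) MTT absorbance at 544 nm is recorded and fitted by minimum sum of squares.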

The test system of test [6] is PC-3M-Luc-C6 prostate cells. Description: In vitro PC-3M-Luc-C6 prostate cell proliferation assay in lipid reduced medium. To be noted: 96 h, read-out: pIC50 PC-3M-Luc-C6 prostate cell (converted). It counts as cell-based.

Where only a bound is given, the exact number is not on record here.

Chain of Fatty Acid Synthase Keto-reductase Domain (FASN KR) (P49327 whole entry, the tested form may be a part): as the sequence (P49327 whole entry) above

For `O=C(C1CC1)N1CC[C@@H](CN2C(=O)C3(CC3)N=C2c2ccc(-c3ccc4sccc4c3)c(F)c2)C1` [compound 233, (R)-5-(4-(benzo[b]thiophen-5-yl)-3-fluorophenyl)-6-((1-(cyclopropanecarbonyl)pyrrolidin-3-yl)methyl)-4,6-diazaspiro[2.4]hept-4-en-7-one], the IC50 in test [1] was 912 nM; in test [2] it was 93.3 nM; in test [3], 1700 nM; in test [4] it was 50.1 nM; in test [5], more than 10000 nM; in test [6], 575 nM. For the same compound, the inhibition at 10 µM in test [4] was determined as 110%.
`O=C(C1CC1)N1CC[C@@H](CN2C(=O)C3(CC3)N=C2c2ccc(-c3ccc4[nH]ccc4c3)c(F)c2)C1` [compound 234, (R)-6-((1-(cyclopropanecarbonyl)pyrrolidin-3-yl)methyl)-5-(3-fluoro-4-(1H-indol-5-yl)phenyl)-4,6-diazaspiro[2.4]hept-4-en-7-one]: the IC50 in test [1] was approximately 28.8 nM; in test [2] it was 51.3 nM; in test [3], 245 nM; in test [4], 20.9 nM; in test [5], more than 10000 nM; in test [6], 23.4 nM. In addition, in test [4], the inhibition at 10 µM worked out at 108%.
With `O=C(C1CC1)N1CC[C@@H](CN2C(=O)C3(CC3)N=C2c2ccc(-c3ccc4cc[nH]c4c3)c(F)c2)C1` [compound 236, (R)-6-((1-(cyclopropanecarbonyl)pyrrolidin-3-yl)methyl)-5-(3-fluoro-4-(1H-indol-6-yl)phenyl)-4,6-diazaspiro[2.4]hept-4-en-7-one], the IC50 in test [1] was approximately 89.1 nM; in test [2], 95.5 nM; in test [3], 646 nM; in test [4] it was 34.7 nM; in test [5] it was more than 10000 nM; in test [6], 51.3 nM. For the same compound, the inhibition at 10 µM in test [4] is 98%.
In the case of `O=C(C1CC1)N1CC[C@@H](CN2C(=O)C3(CC3)N=C2c2ccc(-c3cccc4[nH]ncc34)c(F)c2)C1` [compound 237, (R)-6-((1-(cyclopropanecarbonyl)pyrrolidin-3-yl)methyl)-5-(3-fluoro-4-(1H-indazol-4-yl)phenyl)-4,6-diazaspiro[2.4]hept-4-en-7-one], the IC50 in test [1] is 35.5 nM; in test [2], 120 nM; in test [3] it was 631 nM; in test [4], 79.4 nM; in test [5] it was more than 10000 nM; in test [6] it was approximately 74.1 nM. Moreover, the inhibition at 10 µM in test [4] stood at 100%.
In the case of `Cc1cc(C2=NC3(CC3)C(=O)N2C[C@@H]2CCN(C(=O)C3CC3)C2)ccc1-c1ccc2[nH]ccc2c1` [compound 238, (R)-5-(4-(1H-indol-5-yl)-3-methylphenyl)-6-((1-(cyclopropanecarbonyl)pyrrolidin-3-yl)methyl)-4,6-diazaspiro[2.4]hept-4-en-7-one], the IC50 was 42.7 nM in test [1]; 105 nM in test [2]; 245 nM in test [3]; 43.7 nM in test [4]; more than 10000 nM in test [5]; 70.8 nM in test [6]. The inhibition at 10 µM in test [4] was determined as 98%.
With `O=C(C1CC1)N1CC[C@@H](CN2C(=O)C3(CC3)N=C2c2ccc(-c3ccc4occc4c3)cc2F)C1` [compound 240, (R)-5-(4-(benzofuran-5-yl)-2-fluorophenyl)-6-((1-(cyclopropanecarbonyl)pyrrolidin-3-yl)methyl)-4,6-diazaspiro[2.4]hept-4-en-7-one], the IC50 in test [1] was 200 nM; in test [2], 26.3 nM; in test [3] it was 537 nM; in test [4] it was 12.3 nM; in test [5], more than 6170 nM; in test [6], approximately 166 nM. Moreover, the inhibition at 10 µM in test [4] was 101%.
Take `O=C(C1CC1)N1CC[C@@H](CN2C(=O)C3(CC3)N=C2c2ccc(-c3ccc4sccc4c3)cc2F)C1` [compound 241, (R)-5-(4-(benzo[b]thiophen-5-yl)-2-fluorophenyl)-6-((1-(cyclopropanecarbonyl)pyrrolidin-3-yl)methyl)-4,6-diazaspiro[2.4]hept-4-en-7-one]: the IC50 was approximately 75.9 nM in test [1]; 28.8 nM in test [2]; 166 nM in test [3]; 21.9 nM in test [4]; more than 10000 nM in test [5]; approximately 56.2 nM in test [6]. Besides, the inhibition at 10 µM in test [4] was found to be 100%.
As to `Cc1cc2cc(-c3ccc(C4=NC5(CC5)C(=O)N4C[C@@H]4CCN(C(=O)C5CC5)C4)c(F)c3)ccc2o1` [compound 242, (R)-6-((1-(cyclopropanecarbonyl)pyrrolidin-3-yl)methyl)-5-(2-fluoro-4-(2-methylbenzofuran-5-yl)phenyl)-4,6-diazaspiro[2.4]hept-4-en-7-one], the IC50 is approximately 724 nM in test [1]; 35.5 nM in test [2]; approximately 1580 nM in test [3]; 19.1 nM in test [4]; more than 10000 nM in test [5]; approximately 646 nM in test [6]. Moreover, the inhibition at 10 µM in test [4] came out at 103%.
As to `Cc1cc2cc(-c3ccc(C4=NC5(CC5)C(=O)N4C[C@@H]4CCN(C(=O)C5CC5)C4)c(F)c3)ccc2s1` [compound 243, (R)-6-((1-(cyclopropanecarbonyl)pyrrolidin-3-yl)methyl)-5-(2-fluoro-4-(2-methylbenzo[b]thiophen-5-yl)phenyl)-4,6-diazaspiro[2.4]hept-4-en-7-one], the IC50 in test [1] is 646 nM; in test [2] it was 41.7 nM; in test [3], 832 nM; in test [4], 22.4 nM; in test [5], more than 6170 nM; in test [6], approximately 240 nM. Moreover, the inhibition at 10 µM in test [4] was 104%.
As to `Cc1oc2ccc(-c3ccc(C4=NC5(CC5)C(=O)N4C[C@@H]4CCN(C(=O)C5CC5)C4)c(F)c3)cc2c1C` [compound 244, (R)-6-((1-(cyclopropanecarbonyl)pyrrolidin-3-yl)methyl)-5-(4-(2,3-dimethylbenzofuran-5-yl)-2-fluorophenyl)-4,6-diazaspiro[2.4]hept-4-en-7-one], the IC50 is approximately 2240 nM in test [1]; 56.2 nM in test [2]; 1820 nM in test [3]; 56.2 nM in test [4]; more than 10000 nM in test [5]; approximately 1410 nM in test [6]. Besides, the inhibition at 10 µM in test [4] came to 101%.
For the compound `Cc1sc2ccc(-c3ccc(C4=NC5(CC5)C(=O)N4C[C@@H]4CCN(C(=O)C5CC5)C4)c(F)c3)cc2c1C` [compound 245], the IC50 in test [1] is 1550 nM; in test [2] it was 37.2 nM; in test [3] it was approximately 1700 nM; in test [4], 32.4 nM; in test [5], more than 10000 nM; in test [6], approximately 646 nM. In test [4], the inhibition at 10 µM worked out at 98%.
As to `O=C(C1CC1)N1CC[C@@H](CN2C(=O)C3(CC3)N=C2c2ccc(-c3ccc4[nH]ccc4c3)cc2F)C1` [compound 246, (R)-6-((1-(cyclopropanecarbonyl)pyrrolidin-3-yl)methyl)-5-(2-fluoro-4-(1H-indol-5-yl)phenyl)-4,6-diazaspiro[2.4]hept-4-en-7-one], the IC50 in test [1] was approximately 5.01 nM; in test [2], 38 nM; in test [3], 15.5 nM; in test [4], 17 nM; in test [5], more than 10000 nM; in test [6], 4.79 nM. In addition, the inhibition at 10 µM in test [4] is 101%.
Regarding `O=C(C1CC1)N1CC[C@@H](CN2C(=O)C3(CC3)N=C2c2ccc(-c3ccc4cc[nH]c4c3)cc2F)C1` [compound 247, (R)-6-((1-(cyclopropanecarbonyl)pyrrolidin-3-yl)methyl)-5-(2-fluoro-4-(1H-indol-6-yl)phenyl)-4,6-diazaspiro[2.4]hept-4-en-7-one], the IC50 is 5.01 nM in test [1]; 17.8 nM in test [2]; 23.4 nM in test [3]; 16.2 nM in test [4]; more than 10000 nM in test [5]; 7.24 nM in test [6]. In addition, the inhibition at 10 µM in test [4] was found to be 103%.
Turning to `O=C(C1CC1)N1CC[C@@H](CN2C(=O)C3(CC3)N=C2c2ccc(-c3ccc4cccnc4c3)cc2F)C1` [compound 249, (R)-6-((1-(cyclopropanecarbonyl)pyrrolidin-3-yl)methyl)-5-(2-fluoro-4-(quinolin-7-yl)phenyl)-4,6-diazaspiro[2.4]hept-4-en-7-one], the IC50 is approximately 5.5 nM in test [1]; 19.5 nM in test [2]; 16.6 nM in test [3]; 17 nM in test [4]; more than 10000 nM in test [5]; 4.17 nM in test [6]. The inhibition at 10 µM in test [4] was 102%.
`O=C(C1CC1)N1CC[C@@H](CN2C(=O)C3(CC3)N=C2c2ccc(-c3cccc4ncccc34)cc2F)C1` [compound 250, (R)-6-((1-(cyclopropanecarbonyl)pyrrolidin-3-yl)methyl)-5-(2-fluoro-4-(quinolin-5-yl)phenyl)-4,6-diazaspiro[2.4]hept-4-en-7-one]: the IC50 in test [1] was 302 nM; in test [2], 69.2 nM; in test [3] it was 692 nM; in test [4], 49 nM; in test [5], more than 10000 nM; in test [6], 234 nM. Besides, the inhibition at 10 µM in test [4] is 100%.

For orientation: inhibition means the relative decrease from the control value, in per cent.

(Values after patent publication US10077261B2, “Imidazolin-5-one derivative useful as FASN inhibitors for the treatment of cancer” (Janssen Pharmaceutica NV, priority 2012, dated 2018).)
